The values below are quoted from earlier work in US9132083B2, “Delivery system comprising a silicon-containing material” (SISAF Ltd., priority 2009, dated 2015).

`[Na+].[O-][Si](O)(O)O` [Na^+(OSA)^− salt]: the pKa result is given as “about 6”.
